Tests used:
[1] = biological target: Tyrosine-protein kinase Lck (Homo sapiens) (UniProt P06239); test: Inhibition of recombinant human full length His-tagged LCK expressed in baculovirus expression system at 1 uM by Z'-Lyte assay relative to control
[2] = biological target: Ephrin type-A receptor 2 (Homo sapiens) (UniProt P29317); test: Inhibition of recombinant human GST-tagged EPHA2 cytoplasmic domain expressed in baculovirus expression system at 1 uM by Z'-Lyte assay relative to control
[3] = biological target: Angiopoietin-1 receptor (Homo sapiens) (UniProt Q02763); test: Inhibition of recombinant human GST-tagged TIE2 cytoplasmic domain expressed in baculovirus expression system at 0.1 uM by Z'-Lyte assay relative to control
[4] = biological target: Tyrosine-protein kinase JAK1 (Homo sapiens) (UniProt P23458); test: Inhibition of recombinant human GST-tagged JAK1 expressed in baculovirus expression system at 1 uM by TR-FRET assay relative to control
[5] = biological target: RAC-gamma serine/threonine-protein kinase (Homo sapiens) (UniProt Q9Y243); test: Inhibition of recombinant full length human His-tagged AKT3 expressed in baculovirus expression system at 0.1 uM by TR-FRET assay relative to control
[6] = tested on: Epidermal growth factor receptor (Homo sapiens), P00533 [L858R,T790M]; test: Inhibition of recombinant human GST-tagged EGFR T790M/L858R double mutant expressed in baculovirus expression system at 0.1 uM by TR-FRET assay relative to control
[7] = biological target: Vascular endothelial growth factor receptor 2 (Homo sapiens) (UniProt P35968); test: Inhibition of recombinant human His-tagged KDR cytoplasmic domain expressed in baculovirus expression system at 0.1 uM by Z'-Lyte assay relative to control
[8] = biological target: Serine/threonine-protein kinase TAO2 (Homo sapiens) (UniProt Q9UL54); test: Inhibition of recombinant human GST-tagged TAOK2 expressed in baculovirus expression system at 1 uM by Z'-Lyte assay relative to control
[9] = biological target: PI3-kinase p110-alpha/p85-alpha (Homo sapiens) (UniProt P27986+P42336); test: Inhibition of recombinant full-length human N-terminal His6-tagged p110alpha/p85alpha expressed in baculovirus infected Sf21 cells at 0.1 uM by ADP-Glo assay relative to control
[10] = biological target: Cyclin-dependent kinase 4/cyclin D1 (Homo sapiens) (UniProt P11802+P24385); test: Inhibition of recombinant full length human GST-tagged CDK4/Cyclin-D1 expressed in baculovirus expression system at 0.1 uM by TR-FRET assay relative to control
[11] = biological target: Insulin receptor (Homo sapiens) (UniProt P06213); test: Inhibition of recombinant human GST-tagged INSR cytoplasmic domain expressed in baculovirus expression system at 1 uM by Z'-Lyte assay relative to control
[12] = biological target: MAP kinase-activated protein kinase 2 (Homo sapiens) (UniProt P49137); test: Inhibition of recombinant human full length His-tagged MK2 expressed in Escherichia coli at 0.1 uM by Z'-Lyte assay relative to control
[13] = biological target: Tyrosine-protein kinase SYK (Homo sapiens) (UniProt P43405); test: Inhibition of recombinant human full length GST-tagged SYK expressed in baculovirus expression system at 1 uM by Z'-Lyte assay relative to control
[14] = biological target: Tyrosine-protein kinase SYK (Homo sapiens) (UniProt P43405); test: Inhibition of recombinant human full length GST-tagged SYK expressed in baculovirus expression system at 0.1 uM by Z'-Lyte assay relative to control
[15] = Cmax in CD-1 mouse plasma at 10 mg/kg, po administered as single dose by LC-MS/MS analysis; assay type: ADME, organism-based; design: dose 10 mg/kg, route oral
[16] = biological target: Tyrosine-protein kinase ITK/TSK (Homo sapiens) (UniProt Q08881); test: Inhibition of recombinant full length human GST-tagged ITK expressed in baculovirus expression system at 0.1 uM by TR-FRET assay relative to control
[17] = Unbound AUC (0 to 24 hrs) in CD-1 mouse brain at 10 mg/kg, po administered as single dose by LC-MS/MS analysis; assay type: ADME, organism-based; conditions: in vivo
[18] = biological target: Cytoplasmic tyrosine-protein kinase BMX (Homo sapiens) (UniProt P51813); test: Inhibition of recombinant full length human His-tagged BMX expressed in baculovirus expression system at 1 uM by TR-FRET assay relative to control
[19] = biological target: STE20-like serine/threonine-protein kinase (Homo sapiens) (UniProt Q9H2G2); test: Inhibition of recombinant human full length GST-tagged SLK expressed in baculovirus expression system at 1 uM by LanthaScreen assay relative to control
[20] = biological target: Tyrosine-protein kinase receptor UFO (Homo sapiens) (UniProt P30530); test: Inhibition of recombinant human N-terminal GST tagged AXL (473-end residues) expressed in baculovirus infected Sf9 cells at 1 uM by Z'-Lyte assay relative to control
[21] = biological target: Serine/threonine-protein kinase 10 (Homo sapiens) (UniProt O94804); test: Inhibition of LOK1 (unknown origin) at 1 uM by Z'-Lyte assay relative to control
[22] = biological target: Epidermal growth factor receptor (Homo sapiens) (UniProt P00533); test: Inhibition of recombinant human GST-tagged EGFR cytoplasmic domain expressed in baculovirus expression system at 0.1 uM by TR-FRET assay relative to control
[23] = Cmax in ICR mouse at 5 mg/kg, po administered as single dose by LC-MS/MS analysis; assay type: ADME, organism-based; design: dose 5 mg/kg, route oral; conditions: in vivo
[24] = biological target: Receptor tyrosine-protein kinase erbB-2 (Homo sapiens) (UniProt P04626); test: Inhibition of recombinant human His-tagged ERBB2 cytoplasmic domain expressed in baculovirus expression system at 0.1 uM by Z'-Lyte assay relative to control
[25] = Fraction unbound in CD-1 mouse brain at 2 uM incubated for 4 hrs by LC/MS/MS analysis based equillibriun dialysis method; assay type: ADME, tissue-based
[26] = AUC (0 to infinity) in CD-1 mouse plasma at 10 mg/kg, po administered as single dose by LC-MS/MS analysis; assay type: ADME, organism-based; design: dose 10 mg/kg, time infinity, route oral
[27] = biological target: Platelet-derived growth factor receptor beta (Homo sapiens) (UniProt P09619); test: Inhibition of recombinant human His-tagged PDGFRbeta cytoplasmic domain expressed in baculovirus expression system at 1 uM by Z'-Lyte assay relative to control
U-87 MG = test: Antitumor activity against luciferase-fused human U87MG cells orthotopically xenografted in nude mouse assessed as increase in mouse life span at 3.125 mg/kg, po qd for 5 weeks relative to control; assay type: functional, U-87MG ATCC; conditions: 840 h
[28] = biological target: Mitogen-activated protein kinase kinase kinase 14 (Homo sapiens, UniProt Q99558); test: Inhibition of recombinant human GST-tagged NIK expressed in baculovirus expression system at 0.1 uM by Z'-Lyte assay relative to control
[29] = biological target: Phosphatidylinositol 4,5-bisphosphate 3-kinase catalytic subunit gamma isoform (Homo sapiens) (UniProt P48736); test: Inhibition of PI3K gamma (unknown origin) at 0.1 uM by ADP-Glo assay relative to control

Chain of Vascular endothelial growth factor receptor 2 (Homo sapiens) (P35968 whole entry, the tested form may be a part): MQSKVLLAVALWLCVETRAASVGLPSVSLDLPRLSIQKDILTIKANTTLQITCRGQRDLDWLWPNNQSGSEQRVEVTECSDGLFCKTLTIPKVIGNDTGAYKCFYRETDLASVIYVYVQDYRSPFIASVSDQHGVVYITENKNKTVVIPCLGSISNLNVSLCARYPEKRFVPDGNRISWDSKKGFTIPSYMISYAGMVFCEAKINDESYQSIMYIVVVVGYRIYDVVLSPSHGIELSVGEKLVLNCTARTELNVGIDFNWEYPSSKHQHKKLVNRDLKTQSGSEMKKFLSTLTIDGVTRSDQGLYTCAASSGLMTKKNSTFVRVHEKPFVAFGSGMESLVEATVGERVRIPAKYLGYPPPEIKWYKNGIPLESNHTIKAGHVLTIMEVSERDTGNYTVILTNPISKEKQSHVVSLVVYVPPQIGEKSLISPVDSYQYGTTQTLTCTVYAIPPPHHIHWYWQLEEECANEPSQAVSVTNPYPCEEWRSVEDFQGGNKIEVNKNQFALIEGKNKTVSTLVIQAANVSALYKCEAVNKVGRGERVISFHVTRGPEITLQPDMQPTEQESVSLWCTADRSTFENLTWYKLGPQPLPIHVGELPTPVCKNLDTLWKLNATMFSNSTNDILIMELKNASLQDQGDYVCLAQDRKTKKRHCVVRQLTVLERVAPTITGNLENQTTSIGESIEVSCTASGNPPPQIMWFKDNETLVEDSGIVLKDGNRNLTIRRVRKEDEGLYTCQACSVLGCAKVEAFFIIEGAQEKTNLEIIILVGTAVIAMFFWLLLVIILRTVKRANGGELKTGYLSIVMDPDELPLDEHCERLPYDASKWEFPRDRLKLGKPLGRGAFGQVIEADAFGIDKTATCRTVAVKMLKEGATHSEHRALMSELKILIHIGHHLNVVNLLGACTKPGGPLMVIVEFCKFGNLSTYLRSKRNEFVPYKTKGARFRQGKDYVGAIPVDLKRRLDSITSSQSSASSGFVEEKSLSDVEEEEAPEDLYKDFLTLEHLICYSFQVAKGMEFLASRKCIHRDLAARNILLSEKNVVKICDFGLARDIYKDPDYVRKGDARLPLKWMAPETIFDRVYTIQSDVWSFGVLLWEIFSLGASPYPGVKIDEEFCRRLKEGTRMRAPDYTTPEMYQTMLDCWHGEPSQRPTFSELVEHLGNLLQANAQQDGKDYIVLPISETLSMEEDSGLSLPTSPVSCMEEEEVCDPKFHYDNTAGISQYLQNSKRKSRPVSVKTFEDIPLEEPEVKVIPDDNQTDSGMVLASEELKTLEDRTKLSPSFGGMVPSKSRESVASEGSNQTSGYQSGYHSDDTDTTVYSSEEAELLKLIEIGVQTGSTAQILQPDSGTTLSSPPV
Chain of Tyrosine-protein kinase JAK1 (Homo sapiens) (P23458 whole entry): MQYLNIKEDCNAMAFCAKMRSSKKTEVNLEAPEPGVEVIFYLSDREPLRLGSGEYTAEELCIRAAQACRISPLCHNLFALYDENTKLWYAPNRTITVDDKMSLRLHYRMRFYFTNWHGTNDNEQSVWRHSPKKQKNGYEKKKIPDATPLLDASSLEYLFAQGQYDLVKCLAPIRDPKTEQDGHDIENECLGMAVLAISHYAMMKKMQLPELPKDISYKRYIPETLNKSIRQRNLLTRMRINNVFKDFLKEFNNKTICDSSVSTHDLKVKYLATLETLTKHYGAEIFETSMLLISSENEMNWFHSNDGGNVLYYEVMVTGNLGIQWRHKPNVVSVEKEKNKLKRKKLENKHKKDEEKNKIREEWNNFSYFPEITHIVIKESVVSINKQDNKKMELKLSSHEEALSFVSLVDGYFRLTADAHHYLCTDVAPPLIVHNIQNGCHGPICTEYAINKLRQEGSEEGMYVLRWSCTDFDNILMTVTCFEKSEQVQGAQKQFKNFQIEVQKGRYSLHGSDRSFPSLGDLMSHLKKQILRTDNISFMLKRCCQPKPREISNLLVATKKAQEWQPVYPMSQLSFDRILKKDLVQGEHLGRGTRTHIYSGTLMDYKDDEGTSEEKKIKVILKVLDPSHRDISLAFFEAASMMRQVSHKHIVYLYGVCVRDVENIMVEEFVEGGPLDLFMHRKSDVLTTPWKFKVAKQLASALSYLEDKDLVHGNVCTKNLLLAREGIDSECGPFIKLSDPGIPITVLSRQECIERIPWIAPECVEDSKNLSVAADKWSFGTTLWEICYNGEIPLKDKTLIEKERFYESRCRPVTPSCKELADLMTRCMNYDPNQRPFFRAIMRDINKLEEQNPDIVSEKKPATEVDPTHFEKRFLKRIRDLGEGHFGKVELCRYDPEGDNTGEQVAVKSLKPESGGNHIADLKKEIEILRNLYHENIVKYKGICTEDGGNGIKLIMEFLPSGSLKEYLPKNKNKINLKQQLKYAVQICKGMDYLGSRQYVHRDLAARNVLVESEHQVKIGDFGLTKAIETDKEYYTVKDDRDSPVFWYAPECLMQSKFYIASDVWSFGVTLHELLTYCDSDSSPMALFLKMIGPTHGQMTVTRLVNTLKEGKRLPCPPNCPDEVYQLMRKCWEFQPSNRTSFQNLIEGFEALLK
Chain of Cytoplasmic tyrosine-protein kinase BMX (Homo sapiens) (P51813 whole entry): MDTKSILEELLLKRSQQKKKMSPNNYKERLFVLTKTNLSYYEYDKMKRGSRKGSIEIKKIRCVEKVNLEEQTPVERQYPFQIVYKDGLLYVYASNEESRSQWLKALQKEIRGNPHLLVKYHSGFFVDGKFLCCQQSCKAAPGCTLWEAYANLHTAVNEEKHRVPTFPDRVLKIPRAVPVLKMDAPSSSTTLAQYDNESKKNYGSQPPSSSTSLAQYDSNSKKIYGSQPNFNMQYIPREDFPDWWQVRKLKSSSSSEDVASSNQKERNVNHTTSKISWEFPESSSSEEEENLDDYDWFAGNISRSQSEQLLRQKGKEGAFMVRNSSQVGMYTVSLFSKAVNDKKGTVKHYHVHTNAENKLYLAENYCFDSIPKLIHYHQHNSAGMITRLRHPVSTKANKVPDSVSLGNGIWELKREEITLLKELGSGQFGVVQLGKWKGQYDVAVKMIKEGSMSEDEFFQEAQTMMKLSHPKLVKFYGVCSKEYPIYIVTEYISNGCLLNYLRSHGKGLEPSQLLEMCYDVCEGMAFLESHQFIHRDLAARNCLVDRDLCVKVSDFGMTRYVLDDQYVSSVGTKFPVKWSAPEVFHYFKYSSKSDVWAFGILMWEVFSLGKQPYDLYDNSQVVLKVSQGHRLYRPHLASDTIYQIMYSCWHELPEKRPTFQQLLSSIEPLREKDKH
Chain of STE20-like serine/threonine-protein kinase (Homo sapiens) (Q9H2G2 whole entry, looked up): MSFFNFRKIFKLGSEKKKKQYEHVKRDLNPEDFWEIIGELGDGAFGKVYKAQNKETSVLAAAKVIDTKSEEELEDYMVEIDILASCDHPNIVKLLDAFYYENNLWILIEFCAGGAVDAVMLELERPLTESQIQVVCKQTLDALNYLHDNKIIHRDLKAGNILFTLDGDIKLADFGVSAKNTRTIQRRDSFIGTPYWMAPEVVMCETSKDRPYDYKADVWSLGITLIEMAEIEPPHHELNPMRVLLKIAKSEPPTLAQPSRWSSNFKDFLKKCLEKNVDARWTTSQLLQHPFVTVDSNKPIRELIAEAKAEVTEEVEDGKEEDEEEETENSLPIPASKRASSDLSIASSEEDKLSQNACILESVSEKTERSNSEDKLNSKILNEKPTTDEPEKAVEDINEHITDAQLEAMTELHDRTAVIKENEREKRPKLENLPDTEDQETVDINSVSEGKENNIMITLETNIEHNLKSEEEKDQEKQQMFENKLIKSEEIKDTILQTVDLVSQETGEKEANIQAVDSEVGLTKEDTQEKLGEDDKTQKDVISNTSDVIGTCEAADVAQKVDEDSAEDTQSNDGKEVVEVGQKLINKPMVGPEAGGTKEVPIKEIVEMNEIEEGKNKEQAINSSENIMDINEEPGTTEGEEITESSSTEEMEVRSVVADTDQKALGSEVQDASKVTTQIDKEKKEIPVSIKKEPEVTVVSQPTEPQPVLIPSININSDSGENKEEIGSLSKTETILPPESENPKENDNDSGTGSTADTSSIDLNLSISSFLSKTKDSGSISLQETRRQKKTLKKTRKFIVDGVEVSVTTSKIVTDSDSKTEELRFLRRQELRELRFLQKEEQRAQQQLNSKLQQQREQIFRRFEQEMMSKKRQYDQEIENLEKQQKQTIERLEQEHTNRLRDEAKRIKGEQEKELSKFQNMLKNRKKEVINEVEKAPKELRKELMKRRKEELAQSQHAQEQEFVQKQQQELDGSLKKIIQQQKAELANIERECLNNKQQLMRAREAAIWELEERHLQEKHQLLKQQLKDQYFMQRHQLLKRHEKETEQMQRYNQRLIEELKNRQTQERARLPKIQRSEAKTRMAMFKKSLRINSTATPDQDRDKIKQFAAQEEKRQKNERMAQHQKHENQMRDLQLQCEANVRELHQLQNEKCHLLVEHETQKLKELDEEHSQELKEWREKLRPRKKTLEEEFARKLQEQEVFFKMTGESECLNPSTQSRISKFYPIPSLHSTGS
Chain of MAP kinase-activated protein kinase 2 (Homo sapiens) (P49137 whole entry, looked up): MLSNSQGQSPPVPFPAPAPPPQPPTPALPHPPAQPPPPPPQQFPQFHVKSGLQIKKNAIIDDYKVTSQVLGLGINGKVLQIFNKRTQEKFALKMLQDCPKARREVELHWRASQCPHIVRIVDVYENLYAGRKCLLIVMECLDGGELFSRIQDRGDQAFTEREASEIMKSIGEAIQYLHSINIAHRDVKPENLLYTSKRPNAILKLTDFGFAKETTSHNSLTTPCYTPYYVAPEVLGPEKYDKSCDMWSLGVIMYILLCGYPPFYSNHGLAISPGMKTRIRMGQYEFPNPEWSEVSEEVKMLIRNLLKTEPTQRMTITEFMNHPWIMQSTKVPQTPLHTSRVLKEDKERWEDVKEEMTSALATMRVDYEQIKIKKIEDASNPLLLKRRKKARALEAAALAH

## CC1=Nc2c(F)cc(-c3nc(Nc4ccc(C5CCN(C)CC5)cn4)ncc3F)cc2C12CCCC2 [CROZBACICLIB]
[1]
  inhibition: 13%
[2]
  inhibition: 4%
[3]
  inhibition: -6%
[4]
  inhibition: 24%
[5]
  inhibition: 10%
[6]
  inhibition: 27%
[7]
  inhibition: 2%
[8]
  inhibition: 87%
[9]
  inhibition: -3%
[10]
  inhibition: 106%
[11]
  inhibition: 12%
[12]
  inhibition: 0%
[13]
  inhibition: 26%
[14]
  inhibition: 5%
[15]
  Cmax: 818 ng/mL
[16]
  inhibition: -8%
[17]
  fAUC: 14.87 ng·h/g
[18]
  inhibition: 19%
[19]
  inhibition: 42%
[20]
  inhibition: 26%
[21]
  inhibition: 81%
[22]
  inhibition: -5%
[23]
  Cmax: 134 ng/mL
[24]
  inhibition: 1%
[25]
  Fu: 0.04%
[26]
  AUC(0-inf): 9110 ng·h/mL
[27]
  inhibition: 20%
U-87 MG
  ILS at 3.125 mg/kg: 28%
[28]
  inhibition: 56%
[29]
  inhibition: -5%

Reference: ChEMBL document CHEMBL4251601 (Eur J Med Chem, 2018)
